# Data: patent US5856535A, “Aminosterol ester compounds” (priority 1996, dated 1999)
# Read-outs that look alike come from different tables or passages of the source.
# Experiments:
# melanoma cells = test: MTT assay for cell number; format: cell-based; details: for minimal effective concentration: 48 h, Table II, read-out: Minimum Effective Concentration, MTT assay; for IC50: read-out: MTT assay IC50
# Experimental: In Table V, several aminosterol esters show efficacy in killing melanoma cells in the MTT assay.
# The MTT assay for cell number is performed as follows. Cells are counted on a hemocytometer and diluted to a concentration of approx. 10,000 cells/well (55,000 cells/ml×0.18 ml). Cells are then plated in a 96 well microtiter plate and allowed to attach overnight. The next day, compounds are serially diluted from 1000 to 15.6 μg/ml and run in duplicate. 20 μl of each dilution are transferred to the pre-seeded microtiter plates. The final concentrations are 100 to 1.56 μg/ml. The plates are then incubated for 48 hours at 37° C. in 5% CO2. After 48 hours, MTT solution is added. The plate is re-incubated for 4 hours. Readings are done by removing all but 30 μl of media and MTT solution and dissolving the formazan crystals with DMSO. The formazan is dissolved by mixing on a rotating plate at low speed for about 30 minutes. Absorbance of converted dye is measured at a wavelength of 560 nm with background subtraction at 630 nm. The percent survival is determined by a comparison between the mean absorbance of the duplicate test lanes and the growth control.
# [1] = tested on: Xenopus laevis Stages 59-60 tadpoles; test: tadpole assay; format: in vivo; details: 10 μg/ml where stated
# S. aureus = test: antibiotic activity, S. aureus; format: cell-based; details: Staphylococcus aureus
# P. aerug = test: antibiotic activity, P. aerug; format: cell-based
# [2] = inhibition of MSI-1436 binding; details: 3H-MSI-1436 at 20 μg/mL
# splenocytes = test: mitogen proliferation assay (splenocytes of treated mice, Con A); format: in vivo; details: for Rel. potency to MSI-1436, Mitogen Proliferation Assay: 10 mg/kg iv
# Experimental: For the attached Tables, the mitogen proliferation assay was performed by treating mice (male or female) with various amounts of the aminosterol test compounds. Some time later (typically between 2 hours and 14 days), the mice are sacrificed and their spleens removed. Splenocytes are harvested and cultured in the presence of between 1-10 μg/ml of Con A (Sigma) for 48 hours. See James Morgan, "Monoclonal Antibody Production," Modern Methods in Pharmacology, pp. 29-67, eds., Spector and Back, 1988. This excerpt is entirely incorporated herein by reference. Cell proliferation is monitored either by direct cell counting or by measurement of the incorporation of radioactive thymidine.
# [3] = tested on: chick embryo vitelline capillaries; test: chick embryo vitelline capillary regression assay; format: in vivo; parameters: key to Chick embryo vitelline capillary regression: +: Vascular reactivity; 0: No vascular reactivity; +/-: Equivocal reactivity; details: for Chick embryo vitelline capillary regression: 60 minutes; for effect on vitelline capillaries (in words): 3- to 5-day chick embryo
# Experimental: Using the chick embryo vitelline capillaries assay, various aminosterol compounds were tested for their ability to induce capillary regression. Each compound was applied in 0.1 ml of 15% Ficol 400 and PBS onto the embryo, and vascular regression was assessed after 60 minutes. These tests were conducted by the chorioallantoic membrane anti-angiogenesis assay by applying the material to be assayed to 3 day old fertilized chick embryos in the manner described by Wilks et al., "Inhibition of Angiogenesis With Combination Angiostatic Steroids and Suramin," Radiation Biology, Vol. 60, Nos. 1/2, 1991, pp. 73-77, which article is entirely incorporated herein by reference.
# The 3-day chick embryo consists of an embryonic disc from which numerous vessels emerge and return, forming a "figure 8"-shaped structure--the embryo in the center with vascular loops extending outward over both poles. […] Following a lag period of around 15 minutes, the constriction of continuity between capillary and secondary vessels, generally on the "venous" side, was observed. Continued pulsatile blood flow progressed, resulting in a "swelling" of the blind tube, followed by a pinching off of the remaining connection and formation of an enclosed vascular sac resembling a "blood island." This process progressed until only the largest vessels remained intact.
smiles,measurement,setting,value
CC(CCC(=O)O)[C@H]1CCC2C3CC[C@H]4C[C@@H](NCCCNCCCCN)CC[C@]4(C)C3CC[C@@]21C (stereo partly shown),minimal effective concentration,melanoma cells,13.8 µg/mL
COC(=O)CCC(C)[C@H]1CCC2C3CC[C@@H]4C[C@H](NCCN)CC[C@]4(C)C3C[C@H](O)[C@@]21C (stereo partly shown) [drawing 109],IC50,melanoma cells; Tables III-V,2.4 µg/mL
COC(=O)CC[C@@H](C)[C@H]1CC[C@H]2[C@@H]3C[C@@H](O)[C@H]4C[C@H](NCCN)CC[C@]4(C)[C@H]3CC[C@]12C [Compound 431],effect on embryonic epithelium / epithelial shedding (in words),[1],functionally similar to compound 1437
COC(=O)CCC(C)[C@H]1CCC2C3CC[C@H]4C[C@H](NCCCNCCCCNCCCN)CC[C@]4(C)C3CC[C@@]21C (stereo partly shown) [drawing 55],MIC,S. aureus,4 µg/mL
CC(CCC(=O)O)[C@H]1CCC2C3C(CC[C@@]21C)[C@@]1(C)CC[C@H](NCCCNCCCCNCCCN)C[C@H]1C[C@H]3O (stereo partly shown) [drawing 43],MIC,P. aerug,64 µg/mL
COC(=O)CCC(C)[C@H]1CCC2C3C(CC[C@@]21C)[C@@]1(C)CC[C@H](NCCCNCCCCNCCCN)C[C@@H]1C[C@H]3O (stereo partly shown) [drawing 115],% Inhib. of MSI-1436 Binding @ 100 μg/mL,[2],32%
same,IC50,melanoma cells; Tables III-V,8.1 µg/mL
COC(=O)CCC(C)[C@H]1CCC2C3C(CC[C@@]21C)[C@@]1(C)CC[C@H](NCCN)C[C@H]1C[C@H]3O (stereo partly shown),IC50,melanoma cells; Tables III-V,5.3 µg/mL
COC(=O)CCC(C)[C@H]1CCC2C3C[C@@H](O)[C@H]4C[C@@H](NCCCNCCCCNCCCN)CC[C@]4(C)C3CC[C@@]21C (stereo partly shown),"Rel. potency to MSI-1436, Mitogen Proliferation Assay",splenocytes,0.43
same,% Inhib. of MSI-1436 Binding @ 100 μg/mL,[2],51%
same,MTT assay IC50,melanoma cells; Tables III-V,14 µg/mL
same,IC50,melanoma cells; Tables III-V,10 µg/mL
COC(=O)CCC(C)[C@H]1CCC2C3C[C@@H](O)[C@H]4C[C@@H](NCCCNCCCCN)CC[C@]4(C)C3CC[C@@]21C (stereo partly shown),% Inhib. of MSI-1436 Binding @ 100 μg/mL,[2],57%
same,IC50,melanoma cells; Tables III-V,12 µg/mL
COC(=O)CCC(C)[C@H]1CCC2C3C[C@@H](O)[C@H]4C[C@@H](NCCN)CC[C@]4(C)C3CC[C@@]21C (stereo partly shown),IC50,melanoma cells; Tables III-V,0.8 µg/mL
COC(=O)CCC(C)[C@H]1CCC2C3CC[C@H]4C[C@H](NCCCNCCCCNCCCN)CC[C@]4(C)C3CC[C@@]21C (stereo partly shown) [drawing 84],minimal effective concentration,melanoma cells,6.8 µg/mL
COC(=O)CCC(C)[C@H]1CCC2C3CC[C@@H]4C[C@H](NCCN)CC[C@]4(C)C3C[C@H](O)[C@@]21C (stereo partly shown) [drawing 90],minimal effective concentration,melanoma cells,2.4 µg/mL
COC(=O)CCC(C)[C@H]1CCC2C3C(CC[C@@]21C)[C@@]1(C)CC[C@@H](NCCCNCCCCNCCCN)C[C@@H]1C[C@H]3O (stereo partly shown),% Inhib. of MSI-1436 Binding @ 100 μg/mL,[2],15%
same,IC50,melanoma cells; Tables III-V,7.8 µg/mL
COC(=O)CCC(C)[C@H]1CCC2C3C(CC[C@@]21C)[C@@]1(C)CC[C@@H](NCCN)C[C@H]1C[C@H]3O (stereo partly shown) [drawing 40],MIC,P. aerug,32 µg/mL
COC(=O)CC[C@@H](C)[C@H]1CC[C@H]2[C@@H]3[C@H](O)C[C@@H]4C[C@@H](NCCN)CC[C@]4(C)[C@H]3CC[C@]12C [Compound 409],effect on embryonic epithelium / epithelial shedding (in words),[1],functionally similar to compound 1437
C[C@H](CCC(=O)O)[C@H]1CC[C@H]2[C@@H]3CC[C@H]4C[C@@H](NCCCNCCCCN)CC[C@]4(C)[C@H]3CC[C@]12C [Compound 319],Chick embryo vitelline capillary regression,[3]; 0.001 μg applied,+/-
same,Chick embryo vitelline capillary regression,[3]; 0.01 μg applied,+
same,Chick embryo vitelline capillary regression,[3]; 0.1 μg applied,+
same,Chick embryo vitelline capillary regression,[3]; 1 μg applied,+
same,Chick embryo vitelline capillary regression,[3]; 10 μg applied,+
same,effect on vitelline capillaries (in words),[3],especially active
same,vascular effect in tadpole (in words),[1]; about 60 minutes,common vascular occlusive effect
COC(=O)CCC(C)[C@H]1CCC2C3CC[C@H]4C[C@@H](NCCCNCCCCNCCCN)CC[C@]4(C)C3CC[C@@]21C (stereo partly shown) [drawing 103],"Rel. potency to MSI-1436, Mitogen Proliferation Assay",splenocytes,0.73
same,% Inhib. of MSI-1436 Binding @ 100 μg/mL,[2],-24%
same,MTT assay IC50,melanoma cells; Tables III-V,4 µg/mL
same,IC50,melanoma cells; Tables III-V,5 µg/mL
COC(=O)CC[C@@H](C)[C@H]1CC[C@H]2[C@@H]3CC[C@@H]4C[C@H](NCCN)CC[C@]4(C)[C@H]3C[C@H](O)[C@]12C [Compound 416],effect on embryonic epithelium / epithelial shedding (in words),[1],functionally similar to compound 1437
CC(C)CCC[C@@H](C)[C@H]1CC[C@H]2[C@@H]3CC[C@H]4C[C@@H](NCCCNCCCCN)CC[C@]4(C)[C@H]3CC[C@]12C [Compound 303],Chick embryo vitelline capillary regression,[3]; 1 μg applied,0
COC(=O)CC[C@@H](C)[C@H]1CC[C@H]2[C@@H]3C[C@@H](O)[C@H]4C[C@@H](NCCCN5CCN(CCCN)CC5)CC[C@]4(C)[C@H]3CC[C@]12C [Compound 469],"Rel. potency to MSI-1436, Mitogen Proliferation Assay",splenocytes,1.6
same,potency in the mitogen proliferation assay (in words),"splenocytes; mouse, in vivo",higher potency in the mitogen proliferation assay than compound 1436
same,% Inhib. of MSI-1436 Binding @ 100 μg/mL,[2],110%
same,IC50,melanoma cells,2 µg/mL
COC(=O)CC[C@@H](C)[C@H]1CC[C@H]2[C@@H]3C[C@@H](O)[C@H]4C[C@@H](NCCN)CC[C@]4(C)[C@H]3CC[C@]12C [Compound 432],effect on embryonic epithelium / epithelial shedding (in words),[1],functionally similar to compound 1437
CC(CCC(=O)O)[C@H]1CCC2C3C(CC[C@@]21C)[C@@]1(C)CC[C@H](NCCCNCCCCNCCCN)C[C@H]1C[C@H]3O (stereo partly shown) [drawing 86],minimal effective concentration,melanoma cells,18.1 µg/mL
COC(=O)CCC(C)[C@H]1CCC2C3C(CC[C@@]21C)[C@@]1(C)CC[C@H](NCCCNCCCCNCCCN)C[C@@H]1C[C@H]3O (stereo partly shown) [drawing 35],MIC,S. aureus,2 to 4 µg/mL
COC(=O)CCC(C)[C@H]1CCC2C3CC[C@H]4C[C@H](NCCCNCCCCNCCCN)CC[C@]4(C)C3CC[C@@]21C (stereo partly shown) [drawing 118],% Inhib. of MSI-1436 Binding @ 100 μg/mL,[2],49%
same,IC50,melanoma cells; Tables III-V,13 µg/mL
CC(CCC(=O)O)[C@H]1CCC2C3C(CC[C@@]21C)[C@@]1(C)CC[C@@H](NCCCNCCCCN)C[C@@H]1C[C@H]3O (stereo partly shown),minimal effective concentration,melanoma cells,58.6 µg/mL
COC(=O)CCC(C)[C@H]1CCC2C3CC[C@H]4C[C@@H](NCCCNCCCCNCCCN)CC[C@]4(C)C3CC[C@@]21C (stereo partly shown) [drawing 75],minimal effective concentration,melanoma cells,5 µg/mL
COC(=O)CCC(C)[C@H]1CCC2C3C(CC[C@@]21C)[C@@]1(C)CC[C@@H](NCCN)C[C@H]1C[C@H]3O (stereo partly shown) [drawing 70],minimal effective concentration,melanoma cells,2.6 µg/mL
COC(=O)CCC(C)[C@H]1CCC2C3C(CC[C@@]21C)[C@@]1(C)CC[C@H](NCCCNCCCCNCCCN)C[C@H]1C[C@H]3O (stereo partly shown),% Inhib. of MSI-1436 Binding @ 100 μg/mL,[2],19%
same,IC50,melanoma cells; Tables III-V,7.9 µg/mL
CC(CCC(=O)O)[C@H]1CCC2C3C[C@@H](O)[C@H]4C[C@@H](NCCCNCCCCNCCCN)CC[C@]4(C)C3CC[C@@]21C (stereo partly shown),"Rel. potency to MSI-1436, Mitogen Proliferation Assay",splenocytes,0.22
same,% Inhib. of MSI-1436 Binding @ 100 μg/mL,[2],-69%
COC(=O)CC[C@@H](C)[C@H]1CC[C@H]2[C@@H]3[C@H](O)C[C@H]4C[C@@H](NCCCNCCCCNCCCN)CC[C@]4(C)[C@H]3CC[C@]12C [Compound 396],Chick embryo vitelline capillary regression,[3]; 0.001 μg applied,0
same,Chick embryo vitelline capillary regression,[3]; 0.01 μg applied,0
same,Chick embryo vitelline capillary regression,[3]; 0.1 μg applied,0
C[C@H](CCC(=O)O)[C@H]1CC[C@H]2[C@@H]3[C@H](O)C[C@@H]4C[C@@H](NCCN)CC[C@]4(C)[C@H]3CC[C@]12C [Compound 415],effect on vitelline capillaries (in words),[3],especially active
C[C@H](CCC(=O)O)[C@H]1CC[C@H]2[C@@H]3CC[C@H]4C[C@H](NCCCNCCCCN)CC[C@]4(C)[C@H]3CC[C@]12C [Compound 318],Chick embryo vitelline capillary regression,[3]; 1 μg applied,0
COC(=O)CCC(C)[C@H]1CCC2C3C[C@@H](O)[C@H]4C[C@H](NCCN)CC[C@]4(C)C3CC[C@@]21C (stereo partly shown),IC50,melanoma cells; Tables III-V,2.9 µg/mL
COC(=O)CCC(C)[C@H]1CCC2C3C(CC[C@@]21C)[C@@]1(C)CC[C@@H](NCCCNCCCCN)C[C@H]1C[C@H]3O (stereo partly shown) [drawing 116],% Inhib. of MSI-1436 Binding @ 100 μg/mL,[2],18%
same,IC50,melanoma cells; Tables III-V,12 µg/mL
